Data published in US20250099596A1, “TETRAHYDRONAPHTHALENE COMPOUND, AND PREPARATION METHOD THEREFOR AND USE THEREOF IN MEDICINE” (Jiangsu Hengrui Pharmaceuticals Co., Ltd., priority 2021, published 2025).
Like-named read-outs stand apart in the source and are kept apart here.

Experiments:
[1] = Pharmacokinetic evaluation, SD rat test; format: in vivo; conditions: SD rats; for AUC(0-t): read-out: Area under curve AUC0-t; for half-life: read-out: Half-life T1/2 (converted); for Cmax: read-out: Plasma concentration Cmax
Procedure: With SD rats as test animals, the plasma concentration of the compound of Example 26-1 was determined by LC/MS/MS at different time points after intragastric (i.g.)/intravenous (i.v.) administration to SD rats. The pharmacokinetic behavior of the compound of the present disclosure in SD rats was studied and its pharmacokinetic profile was evaluated.
Eight SD rats, of which half were male and half female, were evenly divided into 2 groups. The rats were provided by Zhejiang Vital River Laboratory Animal Technology Co., Ltd. The 2 groups were fasted overnight and then dosed intragastrically and intravenously, respectively.
An appropriate amount of the compound of Example 26-1 was weighed out and mixed with 5% EtOH+95% (a 15% solution of polyethylene glycol 15-hydroxystearate prepared in a 5% aqueous solution of glucose) to make a 0.2 mg/mL colorless clear solution (for the intragastric administration group) and a 0.2 mg/mL colorless clear solution (for the intravenous administration group).
The intragastric administration group: the dose was 2.0 mg/kg, and the volume was 10.0 mL/kg.
The intravenous administration group: the dose was 1.0 mg/kg, and the volume was 5.0 mL/kg.
The intragastric administration group: Blood (0.2 mL) was collected from the orbit into EDTA-K2 anticoagulation tubes before administration and 0.25 h, 0.5 h, 1.0 h, 2.0 h, 4.0 h, 6.0 h, 8.0 h, 11.0 h and 24.0 h after administration and centrifuged at 10,000 rpm for 1 min (4° C.). The plasma was separated within 1 h and stored at −20° C. before analysis. The process from blood collection to centrifugation was performed in an ice bath. Two hours after administration, feeding was resumed.
The intravenous administration group: Blood was collected before administration and 5 min, 15 min, 0.5 h, 1.0 h, 2.0 h, 4.0 h, 8.0 h, 11.0 h and 24 h after administration and processed as in the intragastric administration group.
The plasma concentration of the test compound was determined after administration of different concentrations of the test compound to SD rats: plasma samples (25 μL) were collected from SD rats at various time points after administration, and 50 μL of camptothecin (100 ng/mL) was added to each of the samples; proteins were precipitated with 200 μL of acetonitrile; the mixtures were vortexed for 5 min and centrifuged at 4000 rpm for 10 min. 1 μL of supernatant was collected for LC/MS/MS analysis.

[2] = tested on: human breast cancer cell MCF-7 (Y537S) xenograft tumors; test: Pharmacodynamic test: MCF-7 (Y537S) xenograft tumors in BEIGE SCID mice; format: in vivo; conditions: for Number of remaining animals/group / Mean tumor volume (mm^3) D 0 / Mean tumor volume (mm^3) D 28 / TGI (%) D 28: i.g., qd/28 d; for Mean tumor volume (mm^3) D 0: D 0 (day of grouping)
Text: To evaluate the inhibitory effect of the compound of the present disclosure on the growth of human breast cancer cell MCF-7 (Y537S) xenograft tumors in BEIGE SCID mice.
A 2% Tween 80+98% PEG-400 solution was used.
Animals: BEIGE SCID female mice, purchased from Beijing Vital River Laboratory Animal Technology Co., Ltd. (certificate No. SCXK (Beijing) 2016-0006), weighing about 19 g on purchase.
BEIGE SCID mice were acclimatized and then grouped as follows:
MCF-7 (Y537S) cells in the logarithmic growth phase were subcutaneously inoculated at 1.0×10^7/mouse/200 μL (containing 100 μL of matrigel) into the right flank of female BEIGE SCID mice. After 18 days, when the tumor volume of tumor-bearing mice reached about 170 mm^3, the mice were randomly divided into 4 groups of 8 by tumor volume and body weight: a vehicle control group, an Example 26-1 5 mpk group, an Example 26-1 15 mpk group, and an Example 26-1 45 mpk group. The day of grouping was set as DO, and intragastric administration was started and performed once a day for 28 days. The 28th day after administration was set as D28 (Table 7). For the tumor-bearing mice, the tumor volume was measured with a vernier caliper and the body weight was measured with a balance twice a week, and data were recorded.
All data were plotted and statistically analyzed using Excel and GraphPad Prism 8 software.
The tumor volume (V) was calculated as follows: V=1/2×a×b^2, where a and b represent length and width, respectively.
The relative tumor proliferation rate T/C (%)=(T−T0)/(C−C0)×100(%), where T and C are tumor volumes of a treatment group and the control group respectively at the end of the experiment; T0 and C0 are tumor volumes of a treatment group and the control group respectively at the beginning of the experiment.
Tumor growth inhibition ? TGI (%)=1−T/C (%), and if TGI (%) exceeds 100%, it will not be shown as a specific value but >100%.

[3] = both sexes, rat, plasma, iv, i.v., 1.0 mg/kg
[4] = both sexes, rat, plasma, po, i.g., 2.0 mg/kg

CC(C)C[C@H]1CCc2cc(O)ccc2[C@H]1c1ccc(N2CCC(CN3CCN(c4ccc5c(c4)CN([C@H]4CCC(=O)NC4=O)C5=O)CC3)CC2)cc1 [Example 26-1, (S)-3-(5-(4-((1-(4-((1R,2R)-6-Hydroxy-2-isobutyl-1,2,3,4-tetrahydronaphthalen-1-yl)phenyl)piperidin-4-yl)methyl)piperazin-1-yl)-1-oxoisoindolin-2-yl)piperidine-2,6-dione]
Clearance CL/F ([1]; i.v., 1.0 mg/kg): 6.4 mL/min/kg
AUC(0-t) [1, 3]: 2640 ng·h/mL
half-life [1, 3]: 4.8 h
Cmax [1, 3]: 4040 ng/mL
Vd/F ([1]; both sexes, rat, plasma, po, i.g., 2.0 mg/kg, read-out: Apparent distribution volume Vz/F): 38.5 L/kg
AUC(0-t) [1, 4]: 302 ng·h/mL
CL/F ([1]; both sexes, rat, plasma, po, i.g., 2.0 mg/kg, read-out: Clearance CL/F): 102 mL/min/kg
half-life [1, 4]: 4.4 h
Cmax [1, 4]: 32.9 ng/mL
Effect on the body weight of BEIGE SCID mice ([2]; i.g., 5, 15, 45 mpk, qd for 28 days): did not affect mouse body weight
Number of remaining animals/group ([2]; 5 mpk): 8/8
Mean tumor volume (mm^3) D 0 ([2]; 5 mpk): 170.2 mm^3
Mean tumor volume (mm^3) D 28 ([2]; 5 mpk): 305.0 mm^3
TGI (%) D 28 ([2]; 5 mpk): 72%
Number of remaining animals/group ([2]; 15 mpk): 8/8
Mean tumor volume (mm^3) D 0 ([2]; 15 mpk): 168.2 mm^3
Mean tumor volume (mm^3) D 28 ([2]; 15 mpk): 219.7 mm^3
TGI (%) D 28 ([2]; 15 mpk): 89%
Number of remaining animals/group ([2]; 45 mpk): 8/8
Mean tumor volume (mm^3) D 0 ([2]; 45 mpk): 168.6 mm^3
Mean tumor volume (mm^3) D 28 ([2]; 45 mpk): 192.0 mm^3
TGI (%) D 28 ([2]; 45 mpk): 95%
